Patent publication US8664220B2, “Polycyclic compounds as lysophosphatidic acid receptor antagonists” (Amira Pharmaceuticals, Inc., priority 2009, dated 2014)

Biological target: T1, human LPA1 (Homo sapiens, UniProt Q92633)
T1 construct: the full-length cDNA for human LPA1 was obtained by PCR of the reverse transcription reaction; expressed in transfected cells
Test: LPA1 calcium flux assay
Assay type: cell-based
Details: human LPA1 expressing CHO cells, stimulated with 10 nM LPA; read-out: HLPA1 Ca Flux IC50
Outline: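 CHO cells stably expressing human LPA1, serum-starved overnight and loaded with Calcium 4 dye in HBSS/20 mM Hepes/0.3% fatty-acid-free HSA, 1 h at 37 °C. Compounds pre-incubated 30 min at room temperature, then 10 nM LPA added; intracellular Ca2+ flux measured and IC50 from titration curves.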

T1 sequence (Q92633 whole entry): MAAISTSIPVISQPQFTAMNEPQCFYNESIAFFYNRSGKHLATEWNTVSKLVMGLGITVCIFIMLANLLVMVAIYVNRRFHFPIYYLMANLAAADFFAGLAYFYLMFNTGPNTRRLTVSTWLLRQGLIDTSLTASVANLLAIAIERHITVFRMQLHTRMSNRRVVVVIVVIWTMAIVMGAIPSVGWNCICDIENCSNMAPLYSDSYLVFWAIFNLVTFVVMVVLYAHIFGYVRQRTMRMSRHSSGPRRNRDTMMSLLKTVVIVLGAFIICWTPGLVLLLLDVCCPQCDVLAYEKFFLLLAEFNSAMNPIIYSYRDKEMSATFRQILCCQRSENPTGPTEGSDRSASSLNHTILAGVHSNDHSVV

Work on `Cc1noc(-c2ccc(-c3ccc(C4(C(=O)O)CC4)cc3)cc2)c1C(O)c1ccc(OCc2ccccc2)cc1` (stereo not shown) [Compound 1-54, 1-(4′-{4-[(4-Benzyloxy-phenyl)-hydroxy-methyl]-3-methyl-isoxazol-5-yl}-biphenyl-4-yl)-cyclopropanecarboxylic acid] yielded an IC50 of 1 to 50 µM.

With `Cc1noc(-c2ccc(-c3ccc(C4(C(=O)O)CC4)cc3)cc2)c1Nc1cccc([S+]([O-])c2ccccc2)n1` (stereo not shown) [Compound 1-127, 1-{4′-[4-(6-Benzenesulfinyl-pyridin-2-ylamino)-3-methyl-isoxazol-5-yl]-biphenyl-4-yl}-cyclopropanecarboxylic acid] the IC50 was < 0.3 µM.

For `Cc1noc(-c2ccc(-c3ccc(C4(C(=O)O)CC4)cc3)cc2)c1Nc1cccc(-c2ccncc2)n1` [Compound 1-99, 1-{4′-[4-([2,4′]Bipyridinyl-6-ylamino)-3-methyl-isoxazol-5-yl]-biphenyl-4-yl}-cyclopropanecarboxylic acid], the IC50 was < 0.3 µM.

With `Cc1noc(-c2ccc(-c3ccc(C4(C(=O)O)CC4)cc3)cc2)c1Cn1ccc(-c2ccc(Br)cc2)n1` [Compound 1-13, 1-(4′-{4-[3-(4-Bromo-phenyl)-pyrazol-1-ylmethyl]-3-methyl-isoxazol-5-yl}-biphenyl-4-yl)-cyclopropanecarboxylic acid] the IC50 was 1 to 50 µM.

With `Cc1noc(-c2ccc(-c3ccc(C4(C(=O)O)CC4)cc3)cc2)c1Nc1cncc(-c2ccccc2Cl)c1` [Compound 1-113, 1-(4′-{4-[5-(2-Chloro-phenyl)-pyridin-3-ylamino]-3-methyl-isoxazol-5-yl}-biphenyl-4-yl)-cyclopropanecarboxylic acid] the IC50 was < 0.3 µM.

For `Cc1noc(-c2ccc(-c3ccc(C4(C(=O)O)CC4)cc3)cc2)c1C(O)c1cn(Cc2c(Cl)cccc2Cl)nn1` (stereo not shown) [Compound 1-72, 1-[4′-(4-{[1-(2,6-Dichloro-benzyl)-1H-[1,2,3]triazol-4-yl]-hydroxy-methyl}-3-methyl-isoxazol-5-yl)-biphenyl-4-yl]-cyclopropanecarboxylic acid], the IC50 was 0.3 to 1 µM.

With `Cc1ccccc1Cn1cc(C(O)c2c(C)noc2-c2ccc(-c3ccc(C4(C(=O)O)CC4)cc3)cc2)nn1` (stereo not shown) [Compound 1-70, 1-[4′-(4-{Hydroxy-[1-(2-methyl-benzyl)-1H-[1,2,3]triazol-4-yl]-methyl}-3-methyl-isoxazol-5-yl)-biphenyl-4-yl]-cyclopropanecarboxylic acid] the IC50 was < 0.3 µM.

For `Cc1noc(-c2ccc(-c3ccc(C4(C(=O)O)CC4)cc3)cc2)c1Nc1cccc(-c2ccccc2F)n1` [Compound 1-95, 1-(4′-{4-[6-(2-Fluoro-phenyl)-pyridin-2-ylamino]-3-methyl-isoxazol-5-yl}-biphenyl-4-yl)-cyclopropanecarboxylic acid], the IC50 was < 0.3 µM.

`Cc1noc(-c2ccc(-c3ccc(CC(=O)O)cc3)cc2)c1C(O)c1cn(Cc2ccccc2)nn1` (stereo not shown) [Compound 1-48, (4′-{4-[(1-Benzyl-1H-[1,2,3]triazol-4-yl)-hydroxy-methyl]-3-methyl-isoxazol-5-yl}-biphenyl-4-yl)-acetic acid] was tested, and the IC50 was < 0.3 µM.

For `Cc1noc(-c2ccc(-c3ccc(C4(C(=O)O)CC4)cc3)cc2)c1C(NS(C)(=O)=O)c1cn(Cc2ccccc2)nn1` (stereo not shown) [Compound 1-47, 1-(4′-{4-[(1-Benzyl-1H-[1,2,3]triazol-4-yl)-methanesulfonylamino-methyl]-3-methyl-isoxazol-5-yl}-biphenyl-4-yl)-cyclopropanecarboxylic acid], the IC50 was > 50 µM.

Compound `Cc1noc(-c2ccc(-c3ccc(C4(C(=O)O)CC4)cc3)cc2)c1C(=O)N1CCN(S(=O)(=O)c2ccc(Cl)c(Cl)c2)CC1` [Compound 1-3, 1-(4′-{4-[4-(3,4-Dichloro-benzenesulfonyl)-piperazine-1-carbonyl]-3-methyl-isoxazol-5-yl}-biphenyl-4-yl)-cyclopropanecarboxylic acid] has an IC50 of 1 to 50 µM.

In the case of `COc1ncccc1-c1cccc(Nc2c(C)noc2-c2ccc(-c3ccc(C4(C(=O)O)CC4)cc3)cc2)n1` [Compound 1-97, 1-{4′-[4-(2′-Methoxy-[2,3′]bipyridinyl-6-ylamino)-3-methyl-isoxazol-5-yl]-biphenyl-4-yl}-cyclopropanecarboxylic acid], the IC50 is reported as < 0.3 µM.

For `Cc1noc(-c2ccc(-c3ccc(C4(C(=O)O)CC4)cc3)cc2)c1C1CN(Cc2ccccc2)C(=O)O1` (stereo not shown) [Compound 1-28, 1-{4′-[4-(3-Benzyl-2-oxo-oxazolidin-5-yl)-3-methyl-isoxazol-5-yl]-biphenyl-4-yl}-cyclopropanecarboxylic acid], the IC50 was < 0.3 µM.

`Cc1noc(-c2ccc(-c3ccc(C4(C(=O)O)CC4)cc3)cc2)c1Nc1cncc(-c2cccc(C(F)(F)F)c2)c1` [Compound 1-118, 1-(4′-{3-Methyl-4-[5-(3-trifluoromethyl-phenyl)-pyridin-3-ylamino]-isoxazol-5-yl}-biphenyl-4-yl)-cyclopropanecarboxylic acid] was tested, and the IC50 was < 0.3 µM.

For `Cc1noc(-c2ccc(-c3ccc(C4(C(=O)O)CC4)cc3)cc2)c1C(O)c1cccc(Cc2ccccc2)c1` (stereo not shown) [Compound 1-58, 1-(4′-{4-[(3-Benzyl-phenyl)-hydroxy-methyl]-3-methyl-isoxazol-5-yl}-biphenyl-4-yl)-cyclopropanecarboxylic acid], the IC50 was < 0.3 µM.

In the case of `Cc1noc(-c2ccc(-c3ccc(C4(C(=O)O)CC4)cc3)cc2)c1Nc1ccc(-c2ccccc2)cc1` [Compound 1-75, 1-{4′-[4-(Biphenyl-4-ylamino)-3-methyl-isoxazol-5-yl]-biphenyl-4-yl}-cyclopropanecarboxylic acid], the IC50 is reported as 0.3 to 1 µM.

For `Cc1noc(-c2ccc(-c3ccc(C4(C(=O)O)CC4)cc3)cc2)c1Nc1cccc(OCC2CC2)n1` [Compound 1-154, 1-{4′-[4-(6-Cyclopropylmethoxy-pyridin-2-ylamino)-3-methyl-isoxazol-5-yl]-biphenyl-4-yl}-cyclopropanecarboxylic acid], the IC50 was < 0.3 µM.

With `Cc1noc(-c2ccc(-c3ccc(C4(C(=O)O)CC4)cc3)cc2)c1-c1nnc(Cc2ccccc2)o1` [Compound 1-24, 1-{4′-[4-(5-Benzyl-[1,3,4]oxadiazol-2-yl)-3-methyl-isoxazol-5-yl]-biphenyl-4-yl}-cyclopropanecarboxylic acid] the IC50 was 1 to 50 µM.

Compound `Cc1noc(-c2ccc(-c3ccc(CCC(=O)O)cc3)cc2)c1C(O)c1cn(Cc2cccc(C(F)(F)F)c2)nn1` (stereo not shown) [Compound 1-52, 3-[4′-(4-{Hydroxy-[1-(3-trifluoromethyl-benzyl)-1H-[1,2,3]triazol-4-yl]-methyl}-3-methyl-isoxazol-5-yl)-biphenyl-4-yl]propionic acid] has an IC50 of 1 to 50 µM.

For `Cc1noc(-c2ccc(-c3ccc(C4(C(=O)O)CC4)cc3)cc2)c1Nc1ccnc(-c2ccccc2)c1` [Compound 1-111, 1-{4′-[3-Methyl-4-(2-phenyl-pyridin-4-ylamino)-isoxazol-5-yl]-biphenyl-4-yl}-cyclopropanecarboxylic acid], the IC50 was 0.3 to 1 µM.

With `Cc1noc(-c2ccc(-c3ccc(C4(C(=O)O)CC4)cc3)cc2)c1Nc1cccc(Cc2ccccc2)n1` [Compound 1-73, 1-{4′-[4-(6-Benzyl-pyridin-2-ylamino)-3-methyl-isoxazol-5-yl]-biphenyl-4-yl}-cyclopropanecarboxylic acid] the IC50 was < 0.3 µM.

`Cc1noc(-c2ccc(-c3ccc(C4(C(=O)O)CC4)cc3)cc2)c1Nc1cccc(-c2cc(F)ccc2F)n1` [Compound 1-148, 1-(4′-{4-[6-(2,5-Difluoro-phenyl)-pyridin-2-ylamino]-3-methyl-isoxazol-5-yl}-biphenyl-4-yl)-cyclopropanecarboxylic acid] was tested, and the IC50 was < 0.3 µM.
